According to BindingDB's records for doi:10.1016/j.bmcl.2010.04.113 (Merck Serono, 2010):
pIC50: −log10 of the molar value.

Experiment: Antagonist activity at human CXCR3 expressed in mouse L1.2 cells assessed as inhibition of IP10-induced chemotaxis after 4 hrs

SMILES	pIC50
O=C(NCC1CC1)c1ccc(CN(Cc2ccccc2)S(=O)(=O)c2ccc(OC(F)(F)F)cc2)cc1 [4-((N-benzyl-4-(trifluoromethoxy)phenylsulfonamido)methyl)-N-(cyclopropylmethyl)benzamide]	5.25
O=C(NCC1CC1)c1ccc(CN(Cc2cccc(Cl)c2)S(=O)(=O)c2ccc(Cl)cc2)cc1 [4-((4-chloro-N-(3-chlorobenzyl)phenylsulfonamido)methyl)-N-(cyclopropylmethyl)benzamide]	6.03
COc1ccc(S(=O)(=O)N(Cc2ccccc2)Cc2ccc(C(=O)O)cc2)cc1 [4-((N-benzyl-4-methoxyphenylsulfonamido)methyl)benzoicacid]	5.19
N#Cc1ccc(S(=O)(=O)N(Cc2ccc(C(=O)O)c(F)c2)Cc2ccccn2)cc1 [4-((4-cyano-N-(pyridin-2-ylmethyl)phenylsulfonamido)methyl)-2-fluorobenzoicacid]	5.97
O=C(NCC1CC1)c1ccc(CN(Cc2ccccc2)S(=O)(=O)c2ccc(Cl)cc2)cc1 [4-((N-benzyl-4-chlorophenylsulfonamido)methyl)-N-(cyclopropylmethyl)benzamide]	5.70
O=C(O)c1ccc(CN(Cc2ccccc2)S(=O)(=O)c2ccc(Cl)cc2)cc1 [4-((N-benzyl-4-chlorophenylsulfonamido)methyl)benzoicacid]	5.53
COc1ccc(S(=O)(=O)N(Cc2ccc(C(=O)NCC3CC3)cc2)Cc2cccnc2)cc1 [N-(cyclopropylmethyl)-4-((4-methoxy-N-(pyridin-3-ylmethyl)phenylsulfonamido)methyl)benzamide]	5.94

Now those with a higher pIC50, led by results:

pIC50	SMILES
6.04	O=S(=O)(c1ccc(Cl)cc1)N(CCc1cc2ccccc2cn1)Cc1ccc(-c2nnn[nH]2)cc1 [N-(4-(1H-tetrazol-5-yl)benzyl)-4-chloro-N-(2-(isoquinolin-3-yl)ethyl)benzenesulfonamide]
6.16	COc1ccc(S(=O)(=O)N(Cc2ccccc2)Cc2ccc(C(=O)NCC3CC3)cc2)cc1 [4-((N-benzyl-4-methoxyphenylsulfonamido)methyl)-N-(cyclopropylmethyl)benzamide]
6.17	CCOc1ccc(S(=O)(=O)N(Cc2ccccc2)Cc2ccc(C(=O)NCC3CC3)cc2)cc1 [4-((N-benzyl-4-ethoxyphenylsulfonamido)methyl)-N-(cyclopropylmethyl)benzamide]
6.27	CCOc1ccc(S(=O)(=O)N(Cc2ccc(-c3nnn[nH]3)cc2)Cc2ccccn2)cc1 [N-(4-(1H-tetrazol-5-yl)benzyl)-4-ethoxy-N-(pyridin-2-ylmethyl)benzenesulfonamide]
6.36	O=S(=O)(c1ccc(Cl)cc1)N(Cc1ccc(-c2nnn[nH]2)c(F)c1)Cc1ccccn1 [4-chloro-N-(3-fluoro-4-(1H-tetrazol-5-yl)benzyl)-N-(pyridin-2-ylmethyl)benzenesulfonamide]
6.46	COc1ccc(S(=O)(=O)N(Cc2ccccc2)Cc2ccc(C(=O)NCc3ccccc3)cc2)cc1 [N-benzyl-4-((N-benzyl-4-methoxyphenylsulfonamido)methyl)benzamide]
6.60	CC(C)(C)c1nc(CCN(Cc2ccc(-c3nnn[nH]3)cc2)S(=O)(=O)c2ccc(Cl)cc2)no1 [N-(4-(1H-tetrazol-5-yl)benzyl)-N-(2-(5-tert-butyl-1,2,4-oxadiazol-3-yl)ethyl)-4-chlorobenzenesulfonamide]
7.07	O=C(NCc1cccc(Cl)c1)c1ccc(CN(Cc2ccccn2)S(=O)(=O)c2ccc(Cl)cc2)cc1 [4-((4-chloro-N-(pyridin-2-ylmethyl)phenylsulfonamido)methyl)-N-(3-chlorobenzyl)benzamide]
